# Measured values as given in US20080274522A1, “METHOD FOR THE PRODUCTION OF 2-BUTANONE” (priority 2007, published 2008).
# Like-named read-outs stand apart in the source and are kept apart here.
# Assays:
# E. coli strain MG1655 = settings: stationary phase
# Description: For the stationary phase studies, E. coli strain MG1655 (ATCC # 700926) was grown overnight in LB medium (Teknova, Half Moon Bay, Calif.) with shaking at 250 rpm at 42° C., […] 28° C. […] To these were added 10 μL of the overnight cultures and the tubes were immediately placed in shaking incubators at 42° C. or 28° C. or left on ice for 30 min. […] Then, 5 μL of the undiluted treated cultures were spotted on LB agar plates. Subsequent 10-fold serial dilutions of 10^−3, 10^−4, 10^−5 and 10^−6 of the exposed cultures were done by serial pipetting of 20 μL, starting with the 10^−2 dilution cultures, into 180 μL of LB medium in the microplate, using a multi-channel pipette. Prior to each transfer, the cultures were mixed by pipetting up and down six times. Each dilution (5 μL) was spotted onto an LB plate using a multi-channel pipette and allowed to soak into the plate. The plates were inverted and incubated overnight at 37° C. […] Survival of 0% was recorded when no colonies in the spots of the undiluted or any of the serial dilutions were observed.
# [1] = tested on: L. plantarum (strain PN0512); settings: for % Survival at 37° C. / % Survival at 23° C. / % Survival at 0° C.: 1 h; for Concentration at which L. plantarum PN0512 cells were killed: one hour
# Description: (§1) Using overnight cultures or cells from plates, 30 mL cultures of the microorganisms to be tested were started in the following culture media: • E. coli—Miller's LB medium (Teknova, Half Moon Bay, Calif.): • L. plantarum PN0512—Lactobacilli MRS Broth (BD Diagnostic Systems, Sparks, Md.). The E. coli and L. plantarum cultures were grown at 37° C. aerobically with shaking until the cultures were in log phase and the OD600 was between 0.6 and 0.8. A 50 μL aliquot of each culture was removed for a time zero sample. The remainder of the cultures was divided into six 5 mL portions and placed in six small incubation flasks or tubes. […] The flasks or tubes were incubated at a desired temperature, aerobically without shaking for 1 h. After the incubation with one of the butanols, 2 μL from each of the flasks (and in addition 2 μL of the time zero sample of the culture before exposure to one of the butanols) were pipetted into the “head” wells of a 96 well (8×12) microtiter plate, each containing 198 μL of LB medium to give a 10^−2 dilution of the culture. Subsequently, 10^−3, 10^−4, 10^−5, and 10^−6 serial dilutions of the cultures were prepared as follows. The 10^−3 dilution was prepared by pipetting 20 μL of the sample from the head well into the 180 μL LB medium in the next well using a multi-channel pipette. This procedure was repeated 3 more times on successive wells to prepare the 10^−4, 10^−5, and 10^−6 dilutions. After each liquid transfer, the solution in the well was mixed by pipetting it up and down 10 times with the multi-channel pipetor. A 5 μL aliquot of each dilution was spotted onto an LB plate using a multi-channel pipette starting with the 10^−6 dilution, then the 10^−5, and so on working from more to less dilute without a change of tips. The spots were allowed to soak into the agar by leaving the lid of the plate slightly open for 15 to 30 min in a sterile transfer hood. The plates were covered, inverted, and incubated overnight at 37° C. The following day, the number of colonies in the spots were counted from the different dilutions. The number of living cells/mL in each of the original culture solutions from which the 2 μL was withdrawn was calculated and compared to the number of cells in the control untreated culture to determine the % of the cells surviving.
# E. coli (strain MG1655) = settings: for % Survival at 30° C. / % Survival at 37° C. / % Survival at 0° C.: 1 h; for Concentration at which E. coli cells were killed: one hour
# Description: as §1
# [2] = 1-butanol 1.0 % (w/v), grown at 29° C.
# [3] = 1-butanol 1.0 % (w/v), grown at 42° C.
# [4] = 1-butanol 1.5 % (w/v), grown at 29° C.
# [5] = 1-butanol 1.5 % (w/v), grown at 42° C.
# [6] = 1-butanol 2.0 % (w/v), grown at 29° C.
# [7] = 1-butanol 2.0 % (w/v), grown at 42° C.
# [8] = 1-butanol 3.0 % (w/v), grown at 29° C.
# [9] = 1-butanol 3.0 % (w/v), grown at 42° C.
# [10] = 1-butanol 4.0 % (w/v), grown at 29° C.
# [11] = 1-butanol 4.0 % (w/v), grown at 42° C.
# [12] = 1-butanol […] (w/v), grown at 29° C.
# [13] = 1-butanol […] (w/v), grown at 42° C.
substance,measurement,setting,value
1-butanol,% survival after 30 min exposure at 28° C.,"E. coli strain MG1655; 1-butanol 1.0 % (w/v), grown at 28° C.",100%
same,% survival after 30 min exposure at 0° C.,E. coli strain MG1655; [2],100%
same,% survival after 30 min exposure at 42° C.,E. coli strain MG1655; [2],100%
same,% survival after 30 min exposure at 0° C.,E. coli strain MG1655; [3],100%
same,% survival after 30 min exposure at 28° C.,E. coli strain MG1655; [3],100%
same,% survival after 30 min exposure at 42° C.,E. coli strain MG1655; [3],100%
same,% survival after 30 min exposure at 28° C.,"E. coli strain MG1655; 1-butanol 1.5 % (w/v), grown at 28° C.",100%
same,% survival after 30 min exposure at 0° C.,E. coli strain MG1655; [4],100%
same,% survival after 30 min exposure at 42° C.,E. coli strain MG1655; [4],0.1%
same,% survival after 30 min exposure at 0° C.,E. coli strain MG1655; [5],100%
same,% survival after 30 min exposure at 28° C.,E. coli strain MG1655; [5],100%
same,% survival after 30 min exposure at 42° C.,E. coli strain MG1655; [5],0.1%
same,% survival after 30 min exposure at 28° C.,"E. coli strain MG1655; 1-butanol 2.0 % (w/v), grown at 28° C.",100%
same,% survival after 30 min exposure at 0° C.,E. coli strain MG1655; [6],100%
same,% survival after 30 min exposure at 42° C.,E. coli strain MG1655; [6],0.1%
same,% survival after 30 min exposure at 0° C.,E. coli strain MG1655; [7],100%
same,% survival after 30 min exposure at 28° C.,E. coli strain MG1655; [7],100%
same,% survival after 30 min exposure at 42° C.,E. coli strain MG1655; [7],0%
same,% survival after 30 min exposure at 28° C.,"E. coli strain MG1655; 1-butanol 3.0 % (w/v), grown at 28° C.",100%
same,% survival after 30 min exposure at 0° C.,E. coli strain MG1655; [8],100%
same,% survival after 30 min exposure at 42° C.,E. coli strain MG1655; [8],0%
same,% survival after 30 min exposure at 0° C.,E. coli strain MG1655; [9],100%
same,% survival after 30 min exposure at 28° C.,E. coli strain MG1655; [9],100%
same,% survival after 30 min exposure at 42° C.,E. coli strain MG1655; [9],0%
same,% survival after 30 min exposure at 28° C.,"E. coli strain MG1655; 1-butanol 4.0 % (w/v), grown at 28° C.",0.0003%
same,% survival after 30 min exposure at 0° C.,E. coli strain MG1655; [10],100%
same,% survival after 30 min exposure at 42° C.,E. coli strain MG1655; [10],0%
same,% survival after 30 min exposure at 0° C.,E. coli strain MG1655; [11],100%
same,% survival after 30 min exposure at 28° C.,E. coli strain MG1655; [11],0.0004%
same,% survival after 30 min exposure at 42° C.,E. coli strain MG1655; [11],0%
same,% survival after 30 min exposure at 0° C.,"E. coli strain MG1655; 1-butanol 5.0 % (w/v), grown at 29° C.",1%
same,% survival after 30 min exposure at 0° C.,"E. coli strain MG1655; 1-butanol 5.0 % (w/v), grown at 42° C.",1%
same,% survival after 30 min exposure at 0° C.,"E. coli strain MG1655; 1-butanol 6.0 % (w/v), grown at 29° C.",0.001%
same,% survival after 30 min exposure at 0° C.,"E. coli strain MG1655; 1-butanol 6.0 % (w/v), grown at 42° C.",0%
same,% survival after 30 min exposure at 0° C.,"E. coli strain MG1655; 1-butanol 7.0 % (w/v), grown at 29° C.",0%
same,% survival after 30 min exposure at 0° C.,"E. coli strain MG1655; 1-butanol 7.0 % (w/v), grown at 42° C.",0%
same,% survival after 30 min exposure at 0° C.,E. coli strain MG1655; [12],100%
same,% survival after 30 min exposure at 42° C.,E. coli strain MG1655; [12],0%
same,% survival after 30 min exposure at 0° C.,E. coli strain MG1655; [13],100%
same,% survival after 30 min exposure at 42° C.,E. coli strain MG1655; [13],0%
same,Concentration with no toxic effect on L. plantarum PN0512 cells,"[1]; 0° C., one hour treatment",≤ 4.5 % v/v
same,% Survival at 37° C.,[1]; 1-butanol 1 % v/v,80%
same,% Survival at 37° C.,[1]; 1-butanol 1.5 % v/v,58%
same,% Survival at 23° C.,[1]; 1-butanol 2 % v/v,100%
same,% Survival at 37° C.,[1]; 1-butanol 2 % v/v,29%
same,% Survival at 0° C.,[1]; 1-butanol 3 % v/v,100%
same,% Survival at 23° C.,[1]; 1-butanol 3 % v/v,82%
same,% Survival at 37° C.,[1]; 1-butanol 3 % v/v,0%
same,% Survival at 0° C.,[1]; 1-butanol 4 % v/v,100%
same,% Survival at 23° C.,[1]; 1-butanol 4 % v/v,0%
same,% Survival at 0° C.,[1]; 1-butanol 5 % v/v,0%
same,% Survival at 0° C.,[1]; 1-butanol 5.5 % v/v,0%
same,% Survival at 0° C.,[1]; 1-butanol […] v/v,100%
same,Concentration at which L. plantarum PN0512 cells were killed,[1]; 23° C.,3.5 % v/v
same,Concentration at which L. plantarum PN0512 cells were killed,[1]; 37° C.,2.5 % v/v
same,Concentration with no toxic effect on E. coli cells,"E. coli (strain MG1655); 0° C., one hour treatment",≤ 4.5 % v/v
same,% Survival at 30° C.,E. coli (strain MG1655); 1-butanol 1 % v/v,100%
same,% Survival at 37° C.,E. coli (strain MG1655); 1-butanol 1 % v/v,72%
same,% Survival at 30° C.,E. coli (strain MG1655); 1-butanol 1.5 % v/v,100%
same,% Survival at 37° C.,E. coli (strain MG1655); 1-butanol 1.5 % v/v,20%
same,% Survival at 30° C.,E. coli (strain MG1655); 1-butanol 2 % v/v,100%
same,% Survival at 37° C.,E. coli (strain MG1655); 1-butanol 2 % v/v,0%
same,% Survival at 0° C.,E. coli (strain MG1655); 1-butanol 3 % v/v,100%
same,% Survival at 30° C.,E. coli (strain MG1655); 1-butanol 3 % v/v,0%
same,% Survival at 37° C.,E. coli (strain MG1655); 1-butanol 3 % v/v,0%
same,% Survival at 0° C.,E. coli (strain MG1655); 1-butanol 4 % v/v,100%
same,% Survival at 0° C.,E. coli (strain MG1655); 1-butanol […] v/v,100%
same,% Survival at 37° C.,E. coli (strain MG1655); 1-butanol […] v/v,0%
same,Concentration at which E. coli cells were killed,E. coli (strain MG1655); 30° C.,3 % v/v
same,Concentration at which E. coli cells were killed,E. coli (strain MG1655); 37° C.,2 % v/v
